Results taken from patent US20170122958A1, “Enzymes Functional Probes” (University of Dundee, priority 2013, published 2017).
pKd: −log10 of the molar value. “Also recorded” adds a separate entry of the source. Read-outs that look alike come from different tables or passages of the source.

Columns and labels:
Brd2(1)*(Met165-Leu) = molecular target: T1, Brd2(1)*(Met165-Leu) (Homo sapiens, UniProt P25440, M165L); assay: DSF thermal shift; assay type: binding; conditions: mutant
T1 construct: Plasmids of the eight single BET bromodomain constructs Brd2(1), Brd2(2), Brd3(1), Brd3(2); His6 (N); made in house; host or cells: E. coli BL21(DE3)
Procedure, shortened: (§1)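 Proteins buffer-exchanged into 20 mM HEPES pH 7.5, 100 mM NaCl; SYPRO Orange reporter. Protein 2 or 6 µM with compound 10 or 30 µM (histone peptide 100 or 300 µM) on two instruments, ramped from 37 or 25 °C to 95 °C, triplicates. Tm from first-derivative maximum of sigmoidal fits.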

Brd2(2)*(Met438-Leu) = molecular target: T2, Brd2(2)*(Met438-Leu) (Homo sapiens, UniProt P25440, M438L); assay: DSF thermal shift; assay type: binding; conditions: mutant
T2 construct: Plasmids of the eight single BET bromodomain constructs Brd2(1), Brd2(2), Brd3(1), Brd3(2); His6 (N); made in house; host or cells: E. coli BL21(DE3)
Procedure, shortened: as §1

Brd2(2)*(Met438-Ala) [1] = molecular target: T3, Brd2(2)*(Met438-Ala) (Homo sapiens, UniProt P25440, M438A); assay: DSF thermal shift; assay type: binding; conditions: mutant
T3 construct: Plasmids of the eight single BET bromodomain constructs Brd2(1), Brd2(2), Brd3(1), Brd3(2); His6 (N); made in house; host or cells: E. coli BL21(DE3)
Procedure, shortened: as §1

Brd2(1)*(Met165Ala) [2] = molecular target: T4, Brd2(1)*(Met165Ala) (Homo sapiens, UniProt P25440, M165A); assay: DSF thermal shift; assay type: binding; design: Plasmids of the eight single BET bromodomain constructs Brd2(1), Brd2(2), Brd3(1), Brd3(2); His6 (N); made in house; host or cells: E. coli BL21(DE3); conditions: mutant
Procedure, shortened: as §1

Solubility observations = conditions: observation in words
Brd2(1)*(Met165Ala) [3] = molecular target: T4, Brd2(1)*(Met165Ala); assay: ITC reverse titration of protein into compound; assay type: binding; design: Plasmids of the eight single BET bromodomain constructs Brd2(1), Brd2(2), Brd3(1), Brd3(2), Brd4(1), Brd4(2), Brdt(1) and Brdt(2); His6 (N); made in house; host or cells: E. coli BL21(DE3)
Description: (§2) ITC experiments were carried out on a ITC200 instrument from MicroCal™ Experiments were conducted at 3 different temperatures 15° C., 25° C. and 30° C., while stirring at 1000 rpm. Buffers of proteins, peptide and compounds were matched to 20 mM HEPES pH 7.5 at 25° C. and 100 mM NaCl. Frozen protein was buffer exchanged as described for the DSF experiments. Each titration comprised 1 initial injection of 0.4 μl lasting 0.8 s, followed by 19 injections of 2 μl lasting 4 s each at 2 min intervals. The initial injection was discarded during data analysis. Standard and reverse titrations were conducted depending on the binding partners.
(§3) Reverse titrations were conducted to test the binding of the known ligands and the novel chemical probes to the wild types and the mutants. Experiments were carried out either at 25° C. or 30° C. For strong binders, a concentration of 150-200 μM of the protein was injected into a solution of 15-20 μM compound. […] In cases where the compound was solubilized in dimethyl sulfoxide, DMSO concentration was adjusted to 1% both in the syringe and in the cell.
(§4) All the data was fitted to a single binding site model using the Microcal LLC ITC200 Origin software provided by the manufacturer to yield enthalpies of binding (ΔH) and binding constants (Kas). Further thermodynamic parameters were calculated from these values (changes in entropy ΔS, changes in free energy AG and dissociation constants (Kds)).

Brd2(2)*(Met438-Ala) [4] = molecular target: T3, Brd2(2)*(Met438-Ala); assay: ITC reverse titration of protein into compound; assay type: binding
Description: as §2
Reverse titrations were conducted to test the binding of the known ligands and the novel chemical probes to the wild types and the mutants. […]. In cases where the compound was solubilized in dimethyl sulfoxide, DMSO concentration was adjusted to 1% both in the syringe and in the cell.
as §4

Brd2(1) [5] = molecular target: T5, Brd2(1) (Homo sapiens, UniProt P25440); assay: DSF thermal shift; assay type: binding; conditions: wild type
T5 construct: Plasmids of the eight single BET bromodomain constructs Brd2(1), Brd2(2), Brd3(1), Brd3(2); His6 (N); made in house; host or cells: E. coli BL21(DE3)

Brd2(2) [6] = molecular target: T6, Brd2(2) (Homo sapiens, UniProt P25440); assay: DSF thermal shift; assay type: binding; conditions: wild type
T6 construct: Plasmids of the eight single BET bromodomain constructs Brd2(1), Brd2(2), Brd3(1), Brd3(2); His6 (N); made in house; host or cells: E. coli BL21(DE3)

[7] = tested on: Brd2 methionine to alanine mutants; assay: DSF thermal shift, pooled statement; assay type: binding, human; conditions: span over both mutants
Description: (§5) DSF assays were performed on a LightCycler®480 from Roche or a Mx3005P Real Time PCR machine from Stratagene. Prior to DSF assays, frozen proteins were buffer exchanged using Vivaspin®6 concentrators with a 10 kDa cutoff on a Centrifuge 5430 from Eppendorf at a speed of 6000×g to remove glycerol and to buffer the proteins in 20 mM HEPES pH 7.5 at 25° C. and 100 mM NaCl. SYPRO®Orange from Invitrogen Molecular Probes® was used as a reporter dye to monitor the denaturing process of the proteins. Samples were assayed on a 96-well plate with final protein concentrations of 2 μM for the LightCycler®480 and 6 μM for Mx3005P. […] The temperature was raised with a step of 0.6° C. per minute from 37° C. to 95° C. with the LightCycler®480 collecting 39 measurements per ° C., and 1° C. per minute from 25° C. to 95° C. with Mx3005P, collecting fluorescence readings at the end of each interval. […]
(§6) Collected data was analysed by IGOR Pro 6, a scientific software tool from Wave Metrics, Inc. Analysis was done following the recommendations of Niesen et al.. Fluorescence intensity was plotted as a function of temperature, generating a sigmoidal curve described by a two-state transition from folded to unfolded protein. […]

Brd2 wild types = assay: DSF thermal shift, pooled statement; assay type: binding, human; conditions: span over Brd2(1) and Brd2(2)
Description: as §5, §6

Brd2(1) [8] = molecular target: T5, Brd2(1); assay: ITC reverse titration of protein into compound; assay type: binding; conditions: ITC 25° C.; read-out: Kd wild type Brd2(1)
Description: as §2
as §3, with “C.” for “C. For strong binders, a concentration of 150-200 μM of the protein was injected into a solution of 15-20 μM compound.”
as §4

Brd2(2) [9] = molecular target: T6, Brd2(2); assay: ITC reverse titration of protein into compound; assay type: binding; conditions: ITC 25° C.
Description: as §2
as §3, with “C.” for “C. For strong binders, a concentration of 150-200 μM of the protein was injected into a solution of 15-20 μM compound.”
as §4

Brd2(2)*(Val376Ala) = molecular target: T7, Brd2(2)*(Val376Ala) (Homo sapiens, UniProt P25440, V376A); assay: DSF thermal shift; assay type: binding; conditions: mutant
T7 construct: Plasmids of the eight single BET bromodomain constructs Brd2(1), Brd2(2), Brd3(1), Brd3(2); His6 (N); made in house; host or cells: E. coli BL21(DE3)

Brd2(1)*(Val103-Ala) = molecular target: T8, Brd2(1)*(Val103-Ala) (Homo sapiens, UniProt P25440, V103A); assay: DSF thermal shift; assay type: binding; conditions: mutant
T8 construct: Plasmids of the eight single BET bromodomain constructs Brd2(1), Brd2(2), Brd3(1), Brd3(2); His6 (N); made in house; host or cells: E. coli BL21(DE3)

Brd2(1)*(Trp097His) = molecular target: T9, Brd2(1)*(Trp097His) (Homo sapiens, UniProt P25440, W97H); assay: DSF thermal shift; assay type: binding; conditions: mutant
T9 construct: Plasmids of the eight single BET bromodomain constructs Brd2(1), Brd2(2), Brd3(1), Brd3(2); His6 (N); made in house; host or cells: E. coli BL21(DE3)

Brd2(2)*(Trp370Phe) [10] = molecular target: T10, Brd2(2)*(Trp370Phe) (Homo sapiens, UniProt P25440, W370F); assay: DSF thermal shift; assay type: binding; conditions: mutant
T10 construct: Plasmids of the eight single BET bromodomain constructs Brd2(1), Brd2(2), Brd3(1), Brd3(2); His6 (N); made in house; host or cells: E. coli BL21(DE3)

Brd2(2)*(Trp370His) = molecular target: T11, Brd2(2)*(Trp370His) (Homo sapiens, UniProt P25440, W370H); assay: DSF thermal shift; assay type: binding; conditions: mutant
T11 construct: Plasmids of the eight single BET bromodomain constructs Brd2(1), Brd2(2), Brd3(1), Brd3(2); His6 (N); made in house; host or cells: E. coli BL21(DE3)

Brd2(1)*(Trp097Phe) = molecular target: T12, Brd2(1)*(Trp097Phe) (Homo sapiens, UniProt P25440, W97F); assay: DSF thermal shift; assay type: binding; conditions: mutant
T12 construct: Plasmids of the eight single BET bromodomain constructs Brd2(1), Brd2(2), Brd3(1), Brd3(2); His6 (N); made in house; host or cells: E. coli BL21(DE3)

Brd2(2)*(Trp370Phe) [11] = molecular target: T10, Brd2(2)*(Trp370Phe); assay: ITC reverse titration of protein into compound; assay type: binding
Description: For this reason, these molecules were not selected for further experimentation. […] Results can be seen in FIG. 7.
as §2
Reverse titrations were conducted to test the binding of the known ligands and the novel chemical probes to the wild types and the mutants. Experiments were carried out either at 25° C. or 30° C. […]
as §4

T4 sequence (P25440 74-180 M165A limits assumed): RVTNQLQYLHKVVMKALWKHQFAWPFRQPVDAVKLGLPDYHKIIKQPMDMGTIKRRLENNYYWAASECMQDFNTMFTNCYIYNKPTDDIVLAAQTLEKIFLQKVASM
T5 sequence (P25440 74-180 limits assumed): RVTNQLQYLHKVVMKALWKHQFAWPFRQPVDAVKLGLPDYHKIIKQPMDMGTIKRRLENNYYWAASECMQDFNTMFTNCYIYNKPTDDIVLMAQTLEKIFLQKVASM
T3 sequence (P25440 344-453 M438A limits assumed): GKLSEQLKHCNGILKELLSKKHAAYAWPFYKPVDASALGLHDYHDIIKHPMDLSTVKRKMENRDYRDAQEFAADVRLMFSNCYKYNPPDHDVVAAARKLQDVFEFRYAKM
T6 sequence (P25440 344-453 limits assumed): as the sequence (P25440 344-453 M438A limits assumed) above, with A95M counted along it
T7 sequence (P25440 344-453 V376A limits assumed): as the sequence (P25440 344-453 M438A limits assumed) above, with V33A, A95M counted along it
T10 sequence (P25440 344-453 W370F limits assumed): as the sequence (P25440 344-453 M438A limits assumed) above, with W27F, A95M counted along it
T8 sequence (P25440 74-180 V103A limits assumed): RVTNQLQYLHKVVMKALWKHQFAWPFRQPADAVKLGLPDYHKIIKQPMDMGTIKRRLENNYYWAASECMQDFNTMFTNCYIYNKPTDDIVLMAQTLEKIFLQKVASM
T9 sequence (P25440 74-180 W97H limits assumed): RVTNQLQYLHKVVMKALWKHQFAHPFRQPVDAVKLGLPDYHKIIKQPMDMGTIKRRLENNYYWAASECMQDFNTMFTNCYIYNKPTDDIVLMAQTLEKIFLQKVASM
T12 sequence (P25440 74-180 W97F limits assumed): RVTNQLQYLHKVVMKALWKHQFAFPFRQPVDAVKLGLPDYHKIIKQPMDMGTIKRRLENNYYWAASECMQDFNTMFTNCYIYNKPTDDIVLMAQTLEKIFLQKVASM
T11 sequence (P25440 344-453 W370H limits assumed): as the sequence (P25440 344-453 M438A limits assumed) above, with W27H, A95M counted along it
T1 sequence (P25440 74-180 M165L limits assumed): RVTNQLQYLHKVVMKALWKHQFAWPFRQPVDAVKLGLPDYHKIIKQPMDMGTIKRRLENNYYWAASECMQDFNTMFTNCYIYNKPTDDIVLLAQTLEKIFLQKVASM
T2 sequence (P25440 344-453 M438L limits assumed): as the sequence (P25440 344-453 M438A limits assumed) above, with A95L counted along it

## COc1ccc(OC)c(S(=O)(=O)Nc2ccc3c(c2)CN(C)C(=O)N3)c1 [Compound 51, 2,5-dimethoxy-N-(3-methyl-2-oxo-1,2,3,4-tetrahydroquinazolin-6-yl)benzenesulfonamide]
Brd2(1)*(Met165-Leu)
  ΔTm Brd2(1)*(Met165-Leu): 2.9 ± 0.2 K
Brd2(2)*(Met438-Leu)
  ΔTm Brd2(2)*(Met165-Leu): 5.2 ± 0.3 K
Brd2(2)*(Met438-Ala) [1]
  ΔTm Brd2(2)*(Met165-Ala): 6.6 ± 0.3 K
Brd2(1)*(Met165Ala) [2]
  ΔTm Brd2(1)*(Met165-Ala): 4.6 ± 0.2 K
Solubility observations
  Solubility: good solubility
Brd2(1)*(Met165Ala) [3]; Brd2(1)* methionine to alanine mutant vs wild type Brd2(2), ITC Kd
  Fold higher affinity for mutant than wild type: three-fold higher affinity; also recorded: twelve fold higher affinity
Brd2(1)*(Met165Ala) [3]; Brd2(1)*(Met165Ala) vs Brd2(1), ITC Kd
  Selectivity for mutant relative to wild type: six-fold selectivity
Brd2(1)*(Met165Ala) [3]; ITC 25° C.
  pKd: ~6.30
Brd2(2)*(Met438-Ala) [4]; Brd2(2) methionine to alanine mutant vs Brd2(2), ITC Kd
  Selectivity for mutant relative to wild type: six fold selectivity
Brd2(2)*(Met438-Ala) [4]; Brd2(2)* methionine to alanine mutant vs wild type Brd2(1), ITC Kd
  Fold higher affinity for mutant than wild type: twelve fold higher affinity; also recorded: three-fold higher affinity
Brd2(2)*(Met438-Ala) [4]; ITC 25° C., read-out: Kd methionine to alanine mutation of Brd2(2)
  pKd: ~6.59
Brd2(1) [5]
  ΔTm Brd2(1): 1.1 ± 0.2 K
Brd2(2) [6]
  ΔTm Brd2(2): 2.1 ± 0.3 K
[7]
  ΔTm methionine to alanine mutants of Brd2: 4.5-6.6 °C
Brd2 wild types
  ΔTm wild types of Brd2: 1-2 °C
Brd2(1) [8]
  pKd: ~5.49
Brd2(2) [9]; read-out: Kd Brd2(2)
  pKd: ~5.80

## COC(=O)CC1N=C(c2ccc(Cl)cc2)c2cc(OC)cc(C)c2-n2c(C)nnc21 (stereo not drawn) [Compound 4, Methyl 2-(6-(4-chlorophenyl)-8-methoxy-1,10-dimethyl-4H benzo[f][1,2,4]triazolo[4,3-a][1,4]diazepin-4-yl)acetate]
Brd2(1) [5]
  Thermal stabilisation brd2(1): 0.7 ± 0.2 °C
  ΔTm Brd2(1): 0.7 ± 0.2 K
Brd2(2)*(Val376Ala)
  Thermal stabilisation brd2(2)V376A: 1.2 ± 0.1 °C
  ΔTm Brd(2)*(Val376-Ala): 1.2 ± 0.1 K
Brd2(1)*(Val103-Ala)
  Thermal stabilisation brd2(1)V103A: 0.5 ± 0.3 °C
  ΔTm Brd2(1)*(Val103-Ala): 0.5 ± 0.3 K
Brd2(2) [6]
  Thermal stabilisation brd2(2): 4.0 ± 0.1 °C
  ΔTm Brd2(2): 4.0 ± 0.1 K

## COC(=O)CC1N=C(c2cccc3[nH]ccc23)c2cc(OC)ccc2-n2c(C)nnc21 (stereo not drawn) [Compound 18]
Brd2(1)*(Trp097His)
  ΔTm Brd2(1)*(Tryp097-His): 0.6 ± 0.3 K
Brd2(2)*(Trp370Phe) [10]
  ΔTm Brd2(2)*(Tryp370-Phe): 5.1 ± 0.1 K
Brd2(1) [5]
  ΔTm Brd2(1): 6.8 ± 0.6 K
Brd2(2)*(Trp370His)
  ΔTm Brd2(2)*(Tryp370-His): 2.7 ± 0.4 K
Brd2(1)*(Trp097Phe)
  ΔTm Brd2(1)*(Tryp097-Phe): 1.9 ± 0.5 K
Brd2(2) [6]
  ΔTm Brd2(2): 7.7 ± 0.2 K
Brd2(2)*(Trp370Phe) [11]
  pKd: ~6.52
Brd2(2) [9]; Kd Brd2(2)
  pKd: ~7.05
